From patent US12595253B2, “Benzamides of pyrazolylamino-pyrimidinyl derivatives, and compositions and methods thereof” (LYNK PHARMACEUTICALS CO. LTD., priority 2019, dated 2026) come the findings set out here.

In data set [1] the target is T1, FLT3D835Y (Homo sapiens, UniProt P36888, D835Y).
T1 construct: purchased Carna Biosciences
T1 sequence (P36888 27-993 D835Y): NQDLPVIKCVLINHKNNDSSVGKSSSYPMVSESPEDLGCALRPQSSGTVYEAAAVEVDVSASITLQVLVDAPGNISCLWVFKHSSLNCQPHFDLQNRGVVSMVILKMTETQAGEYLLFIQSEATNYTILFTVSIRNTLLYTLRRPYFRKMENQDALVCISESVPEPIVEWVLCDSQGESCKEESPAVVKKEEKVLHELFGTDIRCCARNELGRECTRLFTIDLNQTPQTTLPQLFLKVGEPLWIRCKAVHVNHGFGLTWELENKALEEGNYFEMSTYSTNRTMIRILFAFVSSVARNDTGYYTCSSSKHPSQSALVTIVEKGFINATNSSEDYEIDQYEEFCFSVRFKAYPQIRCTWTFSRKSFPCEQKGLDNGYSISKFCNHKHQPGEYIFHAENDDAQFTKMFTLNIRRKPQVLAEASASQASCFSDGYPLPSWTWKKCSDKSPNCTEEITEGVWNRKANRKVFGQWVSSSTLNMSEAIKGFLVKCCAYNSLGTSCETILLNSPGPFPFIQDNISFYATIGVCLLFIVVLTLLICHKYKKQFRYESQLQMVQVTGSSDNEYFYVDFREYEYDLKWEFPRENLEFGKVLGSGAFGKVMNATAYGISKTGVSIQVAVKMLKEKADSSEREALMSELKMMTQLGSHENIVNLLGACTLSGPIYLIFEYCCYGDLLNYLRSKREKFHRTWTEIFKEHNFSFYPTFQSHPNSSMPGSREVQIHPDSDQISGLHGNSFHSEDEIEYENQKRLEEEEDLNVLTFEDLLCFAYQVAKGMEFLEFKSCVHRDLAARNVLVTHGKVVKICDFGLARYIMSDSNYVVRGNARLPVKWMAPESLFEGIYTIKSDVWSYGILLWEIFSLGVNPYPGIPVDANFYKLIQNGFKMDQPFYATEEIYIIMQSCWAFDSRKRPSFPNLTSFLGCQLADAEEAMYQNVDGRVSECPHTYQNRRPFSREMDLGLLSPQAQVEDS
As to the kind of experiment: FLT3D835Y microfluidic kinase assay. In kind it is biochemical. On the procedure: Compounds were tested against FLT3, FLT3ITD and FLT3D835Y.
Assay Formats: FLT3 activity was determined in the reaction buffer 50 mM HEPES, 10 mM MgCl2 and 2 mM DTT by a microfluidic assay. The phosphorylation of a FAM labeled peptide substrate was monitored in the Caliper EZ Reader II (Perkin Elmer). The assay condition for each batch of enzyme (Carna Biosciences) was optimized to obtain 10% conversion rate of peptide substrate.
The test compounds were dissolved in DMSO to a stock concentration of 10 mM. 3-fold serially diluted compounds with top concentration of 5 μM were pre-incubated with FLT3, FLT3ITD or FLT3D835Y for 10 min at ambient temperature. The final DMSO concentration of assay mixture was 1%. […] The reaction was stopped by adding 50 mM EITA. The reaction time for FLT3, FLT3ITD and FLT3D8335Y was 30 min, 40 min and 40 min, respectively.
And the well without compound but with equivalent DMSO was defined as no inhibition. The percent inhibition was calculated by the following formula. % Inhibition=(Conversionmax−Conversionsample)/(Conversionmax−Conversionmin)*100 • Conversionmax means the conversion rate in the positive well without addition of compound • Conversionmin means the conversion rate in the well without addition of enzyme • Conversionsample means the conversion rate of test compounds
The dose-response (percent inhibition) curve was plotted and IC50 values were determined by GraphPad software.

The target in data set [2] is T2, JAK2 (Homo sapiens, UniProt O60674).
T2 construct: purchased Carna Biosciences
In words: JAK2 microfluidic kinase assay (Caliper EZ Reader II, FAM labeled peptide substrate). The data set is classed as biochemical. An outline of the steps:
(§1)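 Compounds, serially diluted 3-fold from 5 μM, were preincubated 10 min with enzyme at ambient temperature before reaction in HEPES/Brij35/MgCl2/DTT buffer (1% DMSO final), tuned to 10% peptide conversion. After EDTA stop, FAM-peptide phosphorylation was measured by Caliper EZ Reader II; IC50 fitted from percent-inhibition curves.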

Data set [3] is described as follows: Liver microsomes study, Phase I stability (RLM). In kind it is in vitro ADME, rat. The settings on record: pH 7.4; rat liver microsomes 0.5 mg/mL, 1 μM test article; read-out: RLM Clint. An outline of the steps: (§2)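 Rat or human liver microsomes were incubated with test article, and reactions started with an NADPH regenerating system. Samples at 0, 10, 30 and 90 minutes were quenched with cold acetonitrile and analyzed by LC/MS/MS. T½ and CLint came from the ln(% remaining) versus time slope, scaled by protein concentration.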
On the technique in general: Microsomes from liver hold many membrane-bound enzymes, among them those of drug oxidation.

Data set [4] can be described thus: Liver microsomes study, Phase I stability (HLM). In kind it is in vitro ADME, human. As to conditions: pH 7.4; human liver microsomes 0.5 mg/mL, 1 μM test article; read-out: HLM Clint. An outline of the steps: as §2
Data set [5] addresses T3, JAK1 (Homo sapiens, UniProt P23458).
T3 construct: purchased Carna Biosciences
In words: JAK1 microfluidic kinase assay (Caliper EZ Reader II, FAM labeled peptide substrate). In kind it is biochemical. The settings on record: IC50 JAK1 (5 nM) (1 m MATP), JAK1 5 nM, 1 mM ATP. The method in brief:
as §1

Data set [6] in a line: Rat pharmacokinetic study (intravenous and oral). The data set is classed as in vivo. The settings on record: male, plasma, Sprague-Dawley rats, solution. On the procedure:
Pharmacokinetic profile of test articles in rodent were evaluated in fasted male ICR mouse and Sprague-Dawley rats. […] Typically, mice were dosed with 2 mg/kg and 10 mg/kg by intravenous injection and oral gavage, respectively. Rats were dosed with 1 mg/kg and 5 mg/kg by intravenous injection and oral gavage, respectively. Beagle dogs were dosed with 1 mg/kg and 5 mg/kg by intravenous injection and oral gavage, respectively. After dosing, blood samples were collected at each time point. For IV injection group, time points were set at 5, 15, 30 min, and then 1, 2, 4, 8 and 24 hours after dosing. For oral gavage group, timepoints were set at 15, 30 m, and then 1, 2, 4, 8, and 24 hours. Blood was collected into appropriately labeled tubes containing K2EDTA as the anticoagulant. Plasma was obtained within 1 hours of blood collection by centrifugation at 8000×g and 4° C. for 6 minutes, and then stored at −20° C. until analyzed by LCMS/MS for quantification.

A short description of data set [7]: Rat pharmacokinetic study (intravenous and oral). In kind it is in vivo. The settings on record: Sprague-Dawley rats, oral, solution.
Data set [8] deals with T4, JAK2V617F (Homo sapiens, UniProt O60674, V617F).
T4 construct: purchased Carna Biosciences
As to the kind of experiment: JAK2V617F microfluidic kinase assay (Caliper EZ Reader II, FAM labeled peptide substrate). In kind it is biochemical. The settings on record: JAK2V617F 2.5 nM, 1 mM ATP. The method in brief:
as §1

For data set [9], the target named is T5, TYK2 (Homo sapiens, UniProt P29597).
T5 construct: purchased Carna Biosciences
In words: TYK2 microfluidic kinase assay (Caliper EZ Reader II, FAM labeled peptide substrate). The settings on record: IC50 TYK2 ([…]) (1 mM ATP), TYK2 […], 1 mM ATP. The data set is classed as biochemical. An outline of the steps:
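Kinase activity was measured in 50 mM HEPES, 0.01% Brij35, 10 mM MgCl2, 2 mM DTT with enzyme set for 10% peptide conversion. Compounds (3-fold dilutions from 5 μM top, 1% DMSO) were pre-incubated 10 min at ambient temperature. Reaction times: JAK1 120 min, JAK2 20 min, JAK2V617F 30 min, TYK2 10 min. EDTA stop.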

The nature of data set [10]: Mini-pig dermal pharmacokinetic study. In kind it is in vivo, Guangxi Bama mini-pigs. The settings on record: topical administration. An excerpt:
The aim of this study was to obtain the topical distribution of test articles in mini-pig after topical administration. Test articles were formulated in 50% PEG400, 10% transcutol and 40% PEG3350 (50% in water), and then applied to male Guangxi Bama mini-pigs (17-20 kg). Twenty-four hour prior to dosing, the hair of the mini-pig was shaved in left and right sides of the back. Two areas at least 5 cm apart at each side of the back were exposed (a total of four areas, each of which was about 112 cm^2). At the time zero, the test article was dosed to the exposed skins with […]. After dosing, the blood and skin samples were collected at 0.5, 1, 3, 6 hour. The blood was taken via venipuncture, and collected to the tubes containing heparin sodium as the anticoagulant. Exposed skin was washed with soap and water before skin sample was collected. Upon the dosed skin the punch biopsy from the epidermis layer to the muscle layer were taken at each time point. Epidermis, dermis, subcutis and subcutaneous muscle were quickly separated, weighed and frozen in dry ice. Epidermis and dermis were homogenized in 1:3 (w/v) normal saline. Homogenized samples were extracted with 3 fold volumes of acetonitrile and quantified against a standard curve with LC-MS/MS system.

The mark [11] stands for this setting: IC50 JAK2 ([…]) (1 mM ATP), 1 mM ATP.

Each structure is given as a SMILES string.

T3 sequence (P23458 whole entry): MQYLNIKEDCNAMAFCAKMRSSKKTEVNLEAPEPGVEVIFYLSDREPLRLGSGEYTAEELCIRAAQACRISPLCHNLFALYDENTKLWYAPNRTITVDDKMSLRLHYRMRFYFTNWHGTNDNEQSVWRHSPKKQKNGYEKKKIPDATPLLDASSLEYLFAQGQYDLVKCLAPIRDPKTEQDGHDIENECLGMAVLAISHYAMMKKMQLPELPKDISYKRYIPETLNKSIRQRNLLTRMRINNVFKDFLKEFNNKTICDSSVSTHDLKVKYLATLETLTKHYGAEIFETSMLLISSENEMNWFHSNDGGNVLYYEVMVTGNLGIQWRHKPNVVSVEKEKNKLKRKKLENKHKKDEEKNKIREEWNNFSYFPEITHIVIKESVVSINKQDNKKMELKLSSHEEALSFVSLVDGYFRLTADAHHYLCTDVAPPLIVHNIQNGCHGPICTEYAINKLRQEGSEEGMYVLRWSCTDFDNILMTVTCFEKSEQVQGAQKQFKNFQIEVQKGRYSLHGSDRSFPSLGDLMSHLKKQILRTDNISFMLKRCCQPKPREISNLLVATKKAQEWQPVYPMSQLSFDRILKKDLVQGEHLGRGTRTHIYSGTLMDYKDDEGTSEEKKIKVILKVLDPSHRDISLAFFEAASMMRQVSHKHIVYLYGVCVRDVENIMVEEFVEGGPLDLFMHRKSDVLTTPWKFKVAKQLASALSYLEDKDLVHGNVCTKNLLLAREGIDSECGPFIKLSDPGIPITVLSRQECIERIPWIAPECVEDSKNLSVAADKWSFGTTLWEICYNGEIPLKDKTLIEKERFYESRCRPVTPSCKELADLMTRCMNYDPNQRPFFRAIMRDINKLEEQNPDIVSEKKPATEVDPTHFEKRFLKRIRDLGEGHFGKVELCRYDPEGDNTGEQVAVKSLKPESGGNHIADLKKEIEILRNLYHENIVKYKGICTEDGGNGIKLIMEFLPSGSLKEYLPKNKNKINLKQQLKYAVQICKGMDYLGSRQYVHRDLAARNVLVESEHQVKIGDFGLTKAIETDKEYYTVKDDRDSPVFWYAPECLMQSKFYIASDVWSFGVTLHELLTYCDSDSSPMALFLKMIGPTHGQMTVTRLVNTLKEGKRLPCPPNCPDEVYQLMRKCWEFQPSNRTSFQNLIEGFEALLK
T2 sequence (O60674 whole entry): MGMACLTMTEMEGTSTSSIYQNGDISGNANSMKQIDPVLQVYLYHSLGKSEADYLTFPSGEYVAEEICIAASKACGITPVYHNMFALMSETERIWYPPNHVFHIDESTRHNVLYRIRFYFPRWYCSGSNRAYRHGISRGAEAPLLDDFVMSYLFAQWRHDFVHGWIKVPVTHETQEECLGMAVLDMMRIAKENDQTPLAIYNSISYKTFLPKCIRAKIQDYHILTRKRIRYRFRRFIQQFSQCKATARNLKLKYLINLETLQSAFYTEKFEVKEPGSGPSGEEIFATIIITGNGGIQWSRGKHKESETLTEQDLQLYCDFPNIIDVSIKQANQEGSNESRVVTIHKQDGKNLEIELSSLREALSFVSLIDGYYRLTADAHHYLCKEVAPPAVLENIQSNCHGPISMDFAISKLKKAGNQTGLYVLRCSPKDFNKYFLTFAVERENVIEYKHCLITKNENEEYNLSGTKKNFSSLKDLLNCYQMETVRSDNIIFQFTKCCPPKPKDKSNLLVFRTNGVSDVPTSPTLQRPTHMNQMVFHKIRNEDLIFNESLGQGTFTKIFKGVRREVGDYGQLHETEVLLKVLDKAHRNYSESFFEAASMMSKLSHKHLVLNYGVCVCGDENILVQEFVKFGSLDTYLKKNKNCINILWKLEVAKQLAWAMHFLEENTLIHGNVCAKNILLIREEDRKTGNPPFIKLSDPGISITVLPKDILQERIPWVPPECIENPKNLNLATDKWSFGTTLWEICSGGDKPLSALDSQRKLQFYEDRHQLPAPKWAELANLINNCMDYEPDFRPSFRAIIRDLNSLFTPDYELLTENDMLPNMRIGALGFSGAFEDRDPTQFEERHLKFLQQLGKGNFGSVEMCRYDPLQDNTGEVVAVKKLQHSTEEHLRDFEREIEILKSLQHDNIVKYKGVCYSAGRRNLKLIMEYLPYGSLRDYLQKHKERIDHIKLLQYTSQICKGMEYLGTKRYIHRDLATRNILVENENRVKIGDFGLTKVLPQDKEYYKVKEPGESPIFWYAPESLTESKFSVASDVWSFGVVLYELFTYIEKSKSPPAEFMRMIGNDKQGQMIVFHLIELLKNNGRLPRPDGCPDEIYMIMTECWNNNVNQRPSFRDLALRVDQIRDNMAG
T4 sequence (O60674 whole entry V617F): as the sequence (O60674 whole entry) above, with V617F counted along it
T5 sequence (P29597 whole entry): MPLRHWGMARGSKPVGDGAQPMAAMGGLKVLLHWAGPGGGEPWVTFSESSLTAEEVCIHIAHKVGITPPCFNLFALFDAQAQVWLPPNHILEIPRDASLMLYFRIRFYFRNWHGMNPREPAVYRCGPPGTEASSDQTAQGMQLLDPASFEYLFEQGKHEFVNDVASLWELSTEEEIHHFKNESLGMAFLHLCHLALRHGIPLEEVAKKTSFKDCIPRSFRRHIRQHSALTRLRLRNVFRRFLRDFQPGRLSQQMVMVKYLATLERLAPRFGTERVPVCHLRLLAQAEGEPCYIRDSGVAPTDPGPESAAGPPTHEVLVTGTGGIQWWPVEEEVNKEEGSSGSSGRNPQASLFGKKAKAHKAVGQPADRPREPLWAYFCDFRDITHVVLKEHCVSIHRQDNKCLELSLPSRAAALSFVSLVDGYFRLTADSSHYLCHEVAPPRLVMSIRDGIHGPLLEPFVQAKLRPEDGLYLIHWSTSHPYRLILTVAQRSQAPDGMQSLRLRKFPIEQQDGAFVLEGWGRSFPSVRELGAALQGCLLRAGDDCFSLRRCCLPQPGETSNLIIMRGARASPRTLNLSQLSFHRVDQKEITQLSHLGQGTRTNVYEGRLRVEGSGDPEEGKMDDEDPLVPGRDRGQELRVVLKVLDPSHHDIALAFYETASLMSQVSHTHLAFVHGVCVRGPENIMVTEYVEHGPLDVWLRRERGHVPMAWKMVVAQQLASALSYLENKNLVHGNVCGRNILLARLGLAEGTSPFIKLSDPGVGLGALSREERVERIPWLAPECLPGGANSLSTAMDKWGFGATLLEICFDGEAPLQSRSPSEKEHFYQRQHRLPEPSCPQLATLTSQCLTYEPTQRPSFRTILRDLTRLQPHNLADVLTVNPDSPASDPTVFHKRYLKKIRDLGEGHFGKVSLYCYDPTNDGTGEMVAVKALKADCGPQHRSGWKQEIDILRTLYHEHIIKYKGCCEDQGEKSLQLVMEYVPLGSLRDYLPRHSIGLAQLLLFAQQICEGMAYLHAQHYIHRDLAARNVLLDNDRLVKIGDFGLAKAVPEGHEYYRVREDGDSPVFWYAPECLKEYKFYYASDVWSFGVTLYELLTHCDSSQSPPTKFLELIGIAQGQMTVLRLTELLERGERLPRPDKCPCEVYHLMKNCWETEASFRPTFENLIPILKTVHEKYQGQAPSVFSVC

The term IC50 denotes the midpoint of a concentration-inhibition curve. A higher IC50 goes with lower potency. What is called AUC is the area under the concentration-time curve, a measure of exposure. A high value points to more exposure. One may read the half-life as how long it takes for the measured level to halve. As to `Cc1cnc(Nc2cnn(C)c2)nc1-c1ccc(C(=O)NCC(C)(C)C#N)cc1` [Example 13, N-(2-Cyano-2-methylpropyl)-4-(5-methyl-2-((1-methyl-1H-pyrazol-4-yl)amino)pyrimidin-4-yl)benzamide], the IC50 in [1] is 0.0574 µM; in [2] (setting [11]), 0.0787 µM; in data set [2] (IC50 JAK2 ([…]) (Km ATP), Km ATP), 0.0027 µM; in data set [5] it was 0.0343 µM. Further, the results for the microsomal CLint at 1 μM in data set [3] and in data set [4] were 120 µL/min/mg and 1.5 µL/min/mg, respectively. The AUC in data set [6] (intravenous, 1 mg/kg) was found to be 880 ng·h/mL. This compound registered a Vd in [6] (intravenous, 1 mg/kg) of 0.6 L/kg. The compound further displayed a clearance in data set [6] (intravenous, 1 mg/kg) of 18.9 mL/min/kg. For the same compound, in [6] (intravenous, 1 mg/kg), the half-life is 21.6 min.

The Cmax is the maximum level reached in the sampled fluid or tissue. On to `Cc1cnc(Nc2cnn(C3CCN(C(=O)C4(C)CC4)CC3)c2)nc1-c1ccc(C(=O)NCC#N)cc1` [Example 38, N-(cyanomethyl)-4-(5-methyl-2-((1-(1-(1-methylcyclopropanecarbonyl)piperidin-4-yl)-1H-pyrazol-4-yl)amino)pyrimidin-4-yl)benzamide], for which the half-inhibitory concentration (IC50) is 0.00787 µM in data set [1], below 0.00025 µM in [2] (setting [11]), 0.013 µM in data set [5] and below 0.00025 µM in data set [8]. In data set [7] (5 mg/kg), this compound yielded an F of 8.36%. Besides, the figures for the microsomal CLint at 1 μM in [3] and in [4] were 61 µL/min/mg and 77.2 µL/min/mg, respectively. For the same compound, the AUC in data set [6] (intravenous, 1 mg/kg) was found to be 2880 ng·h/mL; in data set [6] (oral, 5 mg/kg) it was 1170 ng·h/mL. This compound registered a Vd in [6] (intravenous, 1 mg/kg) of 0.28 L/kg. In addition, the clearance in data set [6] (intravenous, 1 mg/kg) amounted to 6.3 mL/min/kg. For the same compound, the half-life in [6] (intravenous, 1 mg/kg) was 33.6 min; in data set [6] (oral, 5 mg/kg), 84 min. In addition, the highest concentration (Cmax) in data set [6] (oral, 5 mg/kg) is 924 ng/mL.

`Cc1cnc(Nc2cnn(C3CC(C)(C)OC(C)(C)C3)c2)nc1-c1ccc(C(=O)N[C@@H](C)C#N)cc1` [Example 173, (S)—N-(1-cyanoethyl)-4-(5-methyl-2-((1-(2,2,6,6-tetramethyltetrahydro-2H-pyran-4-yl)-1H-pyrazol-4-yl)amino)pyrimidin-4-yl)benzamide]: the figures for the IC50 in data set [9], in [2] (setting [11]) and in [5] were 0.00107 µM, below 0.00025 µM and 0.0152 µM, respectively. Besides, the microsomal CLint at 1 μM in [3] was found to be 69.4 µL/min/mg; in [4] it was 456 µL/min/mg. Besides, the AUC(0-t) in [10] (male, Guangxi Bama, minipig, topical or ocular, 25 μL/m^2 at 6 ml/mL, plasma, read-out: Plasma AUC0-last) amounted to 17.3 ng·h/mL. Further, the “Dermis/plasma ratio (AUC)” value in data set [10] worked out at 273X. In [10], the “Epiermis/plasma ratio (AUC)” value was found to be 4396X.

In data set [7] (10 mg/kg), `C[C@@H](C#N)NC(=O)c1ccc(-c2nc(Nc3cnn(C4CCOCC4)c3)ncc2Cl)cc1` [Example 39, (S)-4-(5-chloro-2-((1-(tetrahydro-2H-pyran-4-yl)-1H-pyrazol-4-yl)amino)pyrimidin-4-yl)-N-(1-cyanoethyl)benzamide] gave an F of 11.99%. In data set [7] (male, rat, plasma, 10 mg/kg), the AUC turned out to be 1090 ng·h/mL, the Cmax amounted to 346 ng/mL and the half-life is 106 min. For the same compound, the microsomal CLint at 1 μM in [3] came out at 27.5 µL/min/mg. Moreover, the microsomal CLint at 1 μM in data set [4] is 54.8 µL/min/mg. The IC50 in data set [5] is 0.0187 µM. In data set [8], this compound displayed an IC50 of 0.00537 µM. In [6] (intravenous, 1 mg/kg), this compound gave an AUC of 951 ng·h/mL, a Vd of 0.7 L/kg, a clearance of 17.5 mL/min/kg and a half-life of 27.6 min.
